In US20250154169A1, “COMPOUNDS AND METHODS FOR MODULATING SPLICING” (REMIX THERAPEUTICS INC., priority 2021, published 2025):
Where a name gives a salt, the structure may show the parent alone. Read-outs that look alike come from different tables or passages of the source.

Key:
Assay type in all cases: cell-based, human
HTT mRNA [1] = test: Splicing RT-qPCR gene panel, HTT canonical junction (CJ) mRNA; settings: Homo sapiens, Tables 4A/4B, read-out: HTT (IC50, decrease in CJ mRNA, gene panel)
Procedure, shortened: (§1)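 A673/K562, 24 h cpd, 11-pt 3-fold from 10 uM, DMSO ≤0.25%. Lysis, direct RT-qPCR of CJ isoform, ≥duplicate. GAPDH/GUSB/PPIA norm, ΔΔCt vs DMSO → RQ → % response.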

MYB mRNA = test: Splicing RT-qPCR assay, MYB canonical (CJ) and alternative (AJ) junction mRNA; settings: Homo sapiens
Procedure, shortened: (§2)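 Compound-induced exon inclusion is tracked as an increase in AJ transcript alongside the CJ transcript. Cells (A673 normalized to PPIA; K562 to GAPDH or GUSB) are dosed 24 h with a serial dilution topping at 10 uM, ≤0.25% DMSO, then lysed and analysed by RT-qPCR in at least duplicate.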

HTT mRNA [2] = test: Splicing RT-qPCR assay, HTT canonical (CJ) and alternative (AJ) junction mRNA; settings: Homo sapiens
Procedure, shortened: as §2

Target C mRNA = test: Splicing RT-qPCR gene panel, Target C canonical junction (CJ) mRNA; settings: Homo sapiens, Tables 4A/4B, read-out: Target C (IC50, decrease in CJ mRNA, gene panel)
Procedure, shortened: as §1

SMN2 mRNA = test: Splicing RT-qPCR gene panel, SMN2 canonical junction (CJ) mRNA; settings: Homo sapiens, Tables 4A/4B, read-out: SMN2 (IC50, decrease in CJ mRNA, gene panel)
Procedure, shortened: as §1

[3] = 24 h, A673 or K562 cells, 24 hours compound treatment, RT-qPCR, read-out: MYB AJ (AC50, increase in alternative junction mRNA)
[4] = 24 h, A673 or K562 cells, 24 hours compound treatment, RT-qPCR, read-out: MYB CJ (IC50, decrease in canonical junction mRNA)
[5] = Tables 4A/4B, canonical junction qPCR panel, read-out: MYB (IC50, decrease in CJ mRNA, gene panel)
[6] = 24 h, A673 or K562 cells, 24 hours compound treatment, read-out: HTT CJ (IC50, decrease in canonical junction mRNA)
[7] = A673 or K562 cells, 24 hours compound treatment, read-out: HTT AJ (AC50, increase in alternative junction mRNA)
[8] = Table 3B, canonical junction mRNA, RT-qPCR, read-out: MYB CJ (IC50, decrease in CJ mRNA)
[9] = Table 3B, alternative junction mRNA, RT-qPCR, read-out: MYB AJ (AC50, increase in AJ mRNA)
[10] = Table 3B, alternative junction mRNA, read-out: HTT AJ (AC50, increase in AJ mRNA)
[11] = Table 3B, canonical junction mRNA, read-out: HTT CJ (IC50, decrease in CJ mRNA)

Row | Structure (SMILES) | IC50 (HTT mRNA [1]) | AC50 (MYB mRNA; [3]) | IC50 (MYB mRNA; [4]) | IC50 (MYB mRNA; [5]) | IC50 (HTT mRNA [2]; [6]) | AC50 (HTT mRNA [2]; [7]) | IC50 (Target C mRNA) | IC50 (SMN2 mRNA) | IC50 (MYB mRNA; [8]) | AC50 (MYB mRNA; [9]) | AC50 (HTT mRNA [2]; [10]) | IC50 (HTT mRNA [2]; [11])
1 | Cc1cn2cc(NC(=O)c3ccc(N4CCNCC4)c4cc(C)oc34)ncc2n1 [Compound 263] | 1 to 10 µM | 0.1 to 1 µM | 0.1 to 1 µM | 0.1 to 1 µM | 1 to 10 µM | 1 to 10 µM | 1 to 10 µM | < 0.1 µM | – | – | – | –
2 | Cc1cn2cc(NC(=O)c3ccc(C4CCN(C)CC4)c4cn(C)nc34)cc(F)c2n1 [Compound 209] | 0.1 to 1 µM | < 0.1 µM | < 0.1 µM | < 0.1 µM | 0.1 to 1 µM | 0.1 to 1 µM | 0.1 to 1 µM | 1 to 10 µM | – | – | – | –
3 | Cc1cn2cc(NC(=O)c3ccc(N4CCNCC4)c4cn(CC5(O)COC5)nc34)cc(F)c2n1 [Compound 384, N-{8-fluoro-2-methylimidazo[1,2-a]pyridin-6-yl}-2-[(3-hydroxyoxetan-3-yl)methyl]-4-(piperazin-1-yl) indazole-7-carboxamide] | > 10 µM | 1 to 10 µM | > 10 µM | > 10 µM | > 10 µM | > 10 µM | > 10 µM | 0.1 to 1 µM | – | – | – | –
4 | COCCOc1nc2c(C(=O)Nc3cc(F)c4nc(C)cn4c3)ccc(N3CCNCC3)c2o1 [Compound 385, N-{8-fluoro-2-methylimidazo[1,2-a]pyridin-6-yl}-2-(2-methoxyethoxy)-7-(piperazin-1-yl)-1,3-benzoxazole-4-carboxamide] | > 10 µM | > 10 µM | > 10 µM | > 10 µM | > 10 µM | > 10 µM | > 10 µM | > 10 µM | – | – | – | –
5 | CCN(CC)C1CCN(c2ccc(C(=O)Nc3cc(F)c4nc(C)cn4c3)c3nn(CCOC)cc23)C1 (stereo not shown) [Compound 330, 4-(3-(diethylamino)pyrrolidin-1-yl)-N-(8-fluoro-2-methylimidazo[1,2-a]pyridin-6-yl)-2-(2-methoxyethyl)-2H-indazole-7-carboxamide compound with 2,2,2-trifluoro-113-ethan-1-one] | > 10 µM | 0.1 to 1 µM | 0.1 to 1 µM | 0.1 to 1 µM | > 10 µM | > 10 µM | > 10 µM | < 0.1 µM | – | – | – | –
6 | Cn1cc2cc(NC(=O)c3ccc(N4CCNCC4)c4cn(C)nc34)cc(F)c2n1 [Compound 319, N-(7-fluoro-2-methylindazol-5-yl)-2-methyl-4-(piperazin-1-yl) indazole-7-carboxamide hydrochloride] | 1 to 10 µM | < 0.1 µM | < 0.1 µM | < 0.1 µM | 1 to 10 µM | 1 to 10 µM | 1 to 10 µM | < 0.1 µM | – | – | – | –
7 | Cc1cn2cc(NC(=O)c3ccc(N4CCC(NCCO)CC4)c4cn(C)nc34)cc(F)c2n1 [Compound 369, N-{8-fluoro-2-methylimidazo[1,2-a]pyridin-6-yl}-4-{4-[(2-hydroxyethyl)amino]piperidin-1-yl}-2-methylindazole-7-carboxamide] | 0.1 to 1 µM | < 0.1 µM | < 0.1 µM | < 0.1 µM | 0.1 to 1 µM | 0.1 to 1 µM | 1 to 10 µM | < 0.1 µM | – | – | – | –
8 | Cc1cn2cc(NC(=O)c3ccc(N4CCC5(CCN5)CC4)c4cn(C)nc34)cc(F)c2n1 [Compound 301, 4-{1,7-diazaspiro[3.5]nonan-7-yl}-N-{8-fluoro-2-methylimidazo[1,2-a]pyridin-6-yl}-2-methylindazole-7-carboxamide trifluoroacetic acid salt] | 0.1 to 1 µM | < 0.1 µM | < 0.1 µM | < 0.1 µM | 0.1 to 1 µM | 0.1 to 1 µM | 1 to 10 µM | < 0.1 µM | – | – | – | –
9 | CNC1CCN(c2ccc(C(=O)Nc3cc(F)c4nc(C)cn4c3)c3nn(C)cc23)C1 (stereo not shown) [Compound 298, N-{8-fluoro-2-methylimidazo[1,2-a]pyridin-6-yl}-2-methyl-4-[3-(methylamino)pyrrolidin-1-yl]indazole-7-carboxamide trifluoroacetic acid salt] | 1 to 10 µM | 0.1 to 1 µM | < 0.1 µM | < 0.1 µM | 1 to 10 µM | 1 to 10 µM | 1 to 10 µM | < 0.1 µM | – | – | – | –
10 | COc1c(NC(=O)c2ccc(N3CC[C@@H](NC4CC4)C3)c3nc(C)nn23)cn2cc(C)nc2c1F [Compound 968] | 0.1 to 1 µM | – | – | < 0.1 µM | – | – | 1 to 10 µM | < 0.1 µM | < 0.1 µM | 0.1 to 1 µM | 1 to 10 µM | 0.1 to 1 µM
11 | CN[C@H]1CCN(c2ccc(C(=O)Nc3cn4cc(C)nc4c(OC)n3)c3nn(C)cc23)C1 [Compound 442] | 1 to 10 µM | 0.1 to 1 µM | 0.1 to 1 µM | < 0.1 µM | 1 to 10 µM | > 10 µM | > 10 µM | < 0.1 µM | – | – | – | –
12 | Cc1cn2cc(NC(=O)c3ccc(N4CCNCC4)c4cn(Cc5cnco5)nc34)cc(F)c2n1 [Compound 366, N-{8-fluoro-2-methylimidazo[1,2-a]pyridin-6-yl}-2-(1,3-oxazol-5-ylmethyl)-4-(piperazin-1-yl) indazole-7-carboxamide] | 1 to 10 µM | < 0.1 µM | < 0.1 µM | < 0.1 µM | 1 to 10 µM | 1 to 10 µM | > 10 µM | < 0.1 µM | – | – | – | –
13 | CCn1cc2c(N3CCC(NC4CC4)CC3)ccc(C(=O)Nc3cc(F)c4nc(C)cn4c3)c2n1 [Compound 376, 4-[4-(cyclopropylamino)piperidin-1-yl]-2-ethyl-N-{8-fluoro-2-methylimidazo[1,2-a]pyridin-6-yl}indazole-7-carboxamide] | 1 to 10 µM | 0.1 to 1 µM | 0.1 to 1 µM | < 0.1 µM | 0.1 to 1 µM | 1 to 10 µM | > 10 µM | < 0.1 µM | – | – | – | –
14 | CCn1cc2c(N3CC[C@H](NC)C3)ccc(C(=O)Nc3cc(F)c4nc(C)cn4c3)c2n1 [Compound 437, (S)-2-ethyl-N-(8-fluoro-2-methylimidazo[1,2-a]pyridin-6-yl)-4-(3-(methylamino)pyrrolidin-1-yl)-2H-indazole-7-carboxamide] | > 10 µM | < 0.1 µM | < 0.1 µM | 0.1 to 1 µM | 1 to 10 µM | 1 to 10 µM | > 10 µM | < 0.1 µM | – | – | – | –
15 | CCC1CN(c2ccc(C(=O)Nc3cc(F)c4nc(C)cn4c3)c3nn(C)cc23)CCN1 (stereo not shown) [Compound 239] | 0.1 to 1 µM | 0.1 to 1 µM | < 0.1 µM | < 0.1 µM | 0.1 to 1 µM | 0.1 to 1 µM | 1 to 10 µM | < 0.1 µM | – | – | – | –
16 | Cc1cn2cc(NC(=O)c3ccc(N4CC[C@@H](N(C)C)C4)c4cn(C)nc34)cc(F)c2n1 (single isomer, unassigned) [Compound 350, 4-[3-(dimethylamino)pyrrolidin-1-yl]-N-{8-fluoro-2-methylimidazo[1,2-a]pyridin-6-yl}-2-methylindazole-7-carboxamide] | 1 to 10 µM | < 0.1 µM | < 0.1 µM | < 0.1 µM | 1 to 10 µM | 1 to 10 µM | > 10 µM | < 0.1 µM | – | – | – | –
17 | Cc1cn2cc(NC(=O)c3ccc(N4CCC(N(C)C)C4)c4cn(C)nc34)cc(F)c2n1 (stereo not shown) [Compound 258] | 1 to 10 µM | < 0.1 µM | < 0.1 µM | < 0.1 µM | 1 to 10 µM | 0.1 to 1 µM | 1 to 10 µM | < 0.1 µM | – | – | – | –
18 | Cc1cn2cc(NC(=O)c3ccc(N4CCNCC4)c4c3nnn4C)cc(F)c2n1 [Compound 436, N-{8-fluoro-2-methylimidazo[1,2-a]pyridin-6-yl}-1-methyl-7-(piperazin-1-yl)-1,2,3-benzotriazole-4-carboxamide] | > 10 µM | 0.1 to 1 µM | 0.1 to 1 µM | > 10 µM | > 10 µM | > 10 µM | > 10 µM | > 10 µM | – | – | – | –
19 | Cc1cn2cc(NC(=O)c3ccc(N4CCC(NC5CC5)CC4)c4csnc34)cc(F)c2n1 [Compound 974] | 0.1 to 1 µM | – | – | < 0.1 µM | – | – | 0.1 to 1 µM | < 0.1 µM | < 0.1 µM | < 0.1 µM | 0.1 to 1 µM | 0.1 to 1 µM
20 | CCc1cc2c(N3CCNCC3)ccc(C(=O)Nc3cc(F)c4nc(C)cn4c3)n2n1 [Compound 960] | 0.1 to 1 µM | – | – | 0.1 to 1 µM | – | – | 0.1 to 1 µM | < 0.1 µM | 0.1 to 1 µM | 0.1 to 1 µM | 0.1 to 1 µM | 0.1 to 1 µM
